Data reported in ChEMBL document CHEMBL1147673, “NO-donor phenols: a new class of products endowed with antioxidant and vasodilator properties” (J Med Chem, 2006).

molecular target: T1, Alpha-1D adrenergic receptor (Rattus norvegicus) (UniProt P23944); experiment: Vasodilator activity assessed as ability to relax phenylephrine-induced contraction of Wistar rat aortic strips at 30 uM in presence of 1 uM ODQ; type: functional, tissue-based; design: scale not given: the % may be the effect or the level left; conditions: Aorta
T1 sequence (whole entry): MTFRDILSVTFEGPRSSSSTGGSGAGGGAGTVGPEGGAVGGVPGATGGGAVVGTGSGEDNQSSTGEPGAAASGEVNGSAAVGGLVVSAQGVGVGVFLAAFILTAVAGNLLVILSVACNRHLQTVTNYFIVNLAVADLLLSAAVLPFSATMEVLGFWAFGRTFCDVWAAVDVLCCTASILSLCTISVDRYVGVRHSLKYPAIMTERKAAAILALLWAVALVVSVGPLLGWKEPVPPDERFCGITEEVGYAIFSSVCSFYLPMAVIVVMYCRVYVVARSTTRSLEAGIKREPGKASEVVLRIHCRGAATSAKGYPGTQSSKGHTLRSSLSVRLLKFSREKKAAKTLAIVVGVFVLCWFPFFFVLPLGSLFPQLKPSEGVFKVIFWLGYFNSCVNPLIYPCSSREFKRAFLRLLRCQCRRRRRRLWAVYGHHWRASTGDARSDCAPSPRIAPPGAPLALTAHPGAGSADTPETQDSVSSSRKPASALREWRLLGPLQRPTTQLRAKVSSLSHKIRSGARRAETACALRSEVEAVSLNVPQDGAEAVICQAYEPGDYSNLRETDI

SMILES | Activity [%]
CC(C)(C)c1cc(CC(CO[N+](=O)[O-])[N+](=O)[O-])cc(C(C)(C)C)c1O (stereo unspecified) | 24

system: Radical scavenging activity; experiment: Antioxidant activity assessed as inhibition of TBARS production in ferrous salt/ascorbate-induced lipid peroxidation in Wistar rat liver microsomal membrane; type: functional, microsomes; conditions: not given

SMILES | IC50 [nM]
CC(C)(C)c1cc(CCCOc2no[n+]([O-])c2S(=O)(=O)c2ccccc2)cc(C(C)(C)C)c1O | 2000
CN(CCCc1cc(C(C)(C)C)c(O)c(C(C)(C)C)c1)Cc1no[n+]([O-])c1C(N)=O | 1200
Cc1c(C)c2c(c(C)c1O)CCC(C)(C)O2 [APC-100] | 170
O=S(=O)(c1ccccc1)c1c(OCCCc2ccc(O)cc2)no[n+]1[O-] | 47000
COc1cc(CCCOc2no[n+]([O-])c2S(=O)(=O)c2ccccc2)cc(OC)c1O | 3400
Cc1c(C)c2c(c(C)c1O)CCC(C)(COCCCO[N+](=O)[O-])O2 (stereo unspecified) | 150
Cc1c(C)c2c(c(C)c1O)CCC(C)(CN(C)Cc1no[n+]([O-])c1C(N)=O)O2 (stereo unspecified) | 140
Cc1cc(C(C)(C)C)c(O)c(C(C)(C)C)c1 [BUTYLATED HYDROXYTOLUENE] | 1700
CC(C)(C)c1cc(CC(CO[N+](=O)[O-])[N+](=O)[O-])cc(C(C)(C)C)c1O (stereo unspecified) | 2600
CCOc1no[n+]([O-])c1S(=O)(=O)c1ccccc1 | 110000
COc1cc(CCCO[N+](=O)[O-])cc(OC)c1O | 5900
COc1cc(CC(CO[N+](=O)[O-])[N+](=O)[O-])cc(OC)c1O (stereo unspecified) | 5400
O=[N+]([O-])OCCCc1ccc(O)cc1 | 143000
CC(C)(C)c1cc(CCCO[N+](=O)[O-])cc(C(C)(C)C)c1O | 2000
Cc1ccc(O)cc1 [p-CRESOL] | 290000
COc1cc(C)cc(OC)c1O | 18000
Cc1c(C)c2c(c(C)c1O)CCC(C)(COc1no[n+]([O-])c1S(=O)(=O)c1ccccc1)O2 (stereo unspecified) | 490
O=[N+]([O-])OCC(Cc1ccc(O)cc1)[N+](=O)[O-] (stereo unspecified) | 185000

system: Radical scavenging activity; experiment: Antioxidant activity assessed as inhibition of TBARS production in ferrous salt/ascorbate-induced lipid peroxidation in Wistar rat liver microsomal membrane at 1 mM; type: functional, microsomes; conditions: not given

SMILES | IC50
CN(C)Cc1no[n+]([O-])c1C(N)=O | Not Active
NC(=O)c1c(CO)no[n+]1[O-] | Not Active
